PMC11292009, “Mapping protein binding sites by photoreactive fragment pharmacophores” (Communications Chemistry, 2024)
Values joined by “and” are separate entries in the source; they are usually repeats but may differ in a detail not shown here. Equal values may be shown once.

How the values were obtained:
Type in all cases: binding
[1] = system: T1, KRas^G12D; assay: Intact MS photoaffinity labeling screen, KRas G12D (302 nm, LCMS-TOF); conditions: for MS labeling percentage, KRas: KRas G12D, 302 nm 10 min; for KRAS-G12D: experimental hit status flag (0/1)
T1 construct: purchased GSK/GenScript
How it was run: (§1)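 Labeling detected as mass additions in deconvoluted intact-protein LCMS-TOF spectra. Protein at 1 μM in PBS was first mixed with one fragment per well on ice for 15 min, followed by 10 min UV exposure at 302 nm.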

[2] = system: carbonic anhydrase II (CA); assay: Intact protein MS photoaffinity labeling screen, carbonic anhydrase; conditions: intact protein MS after 10 min irradiation
How it was run: (§2)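 Each fragment was placed in its own well and incubated with the protein for 15 min to allow non-covalent binding. Samples were then analysed directly from the plate by intact protein mass spectrometry, and labeling was scored as mass additions on the protein, reported as labeling %.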

[3] = system: T2, STAT5B-NTD; assay: Intact MS labeling screen, STAT5B-NTD conjugated with photocatalyst Ir-G2-PEG3-COOH (450 nm); conditions: 450 nm 10 min;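 further: 0.14 µL of 100 mM DMSO fragment stock added to the conjugate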
T2 construct: His-SUMO (N, cleaved yes); made in house; host or cells: E. coli BL21 RILP
How it was run: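 Ir-G2-PEG3-COOH photocatalyst (10 eq) activated 30 min with EDC/NHS/BOP, then conjugated to STAT5B-NTD (7 µM) overnight at RT or 1 h at 37 °C in dark. PhP added, 1 h dark, then 450 nm irradiation 10 min at 4 °C; labeling read by intact LC-MS, positive ion mode, m/z 100–2000.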

[4] = system: myoglobin (Myo); assay: Intact protein MS photoaffinity labeling screen, myoglobin; conditions: intact protein MS after 10 min irradiation
How it was run: as §2

[5] = system: CA, Lyo, Myo, BRD4-BD1, KRas G12D, STAT5B-NTD; assay: Intact MS labeling compared over all protein targets; conditions: for Labeling of the other protein targets (vs. preferred target): each of the other targets
Description: Using a plate-based format with one fragment per well, each fragment was incubated with the target proteins for 15 min to allow for the formation of non-covalent interactions. The plate was then irradiated at 302 or 365 nm for 10 min to enable the bound fragments to crosslink to the protein[26]. Finally, the results were directly analyzed from the plate using intact protein mass spectrometry by observing the mass additions that correspond to successful labeling (Fig. 2c, for labeling % values see Supplementary data). The library was first characterized against three benchmark proteins like carbonic anhydrase (CA), lysozyme (Lyo), and myoglobin (Myo).
The PhP library was screened against BRD4-BD1 and KRas^G12D as follows. Using a Labcyte Echo® 555 Liquid Handler, 150 nL of fragment solution (20 mM) was transferred into a Greiner 384 low-volume plate (white) to prepare the probe plate. The probe plate was placed on ice. 15 μL of protein stock solution (1 μM BRD4-BD1 (GSK/GenScript) or KRas^G12D (GSK/GenScript) in PBS buffer) was dispensed into wells containing fragments. The plate was left on ice for 15 min for incubation, then irradiated at 302 nm for 10 min, and centrifuged (1000 rpm, 1 min) to remove any bubbles. The plate was then analyzed by LCMS-TOF mass spectrometry (Agilent 1200 series liquid chromatography with Agilent Bio-HPLC PLRP-S (1000 Å, 5 µm × 50 mm × 1.0 mm, PL1312-1502) reverse phase HPLC column at 70 °C equipped with an Agilent G6224 time-of-flight (ToF), see Supplementary Note 2 for the full protocols). The deconvoluted spectra were analyzed using R Studio software.
During the analysis, the column temperature was maintained at a constant 60 °C, and a sample volume of 3 µL was injected for each analysis. Data acquisition was conducted in positive ion mode within the m/z 100–2000 (mass-to-charge ratio) range. For the full protocol and spectra of the hits, see Supplementary Note 2.

[6] = system: T3, BRD4-BD1; assay: Intact MS photoaffinity labeling screen, BRD4-BD1 (302 nm, LCMS-TOF); conditions: for MS labeling percentage, BRD4: BRD4-BD1, 302 nm 10 min; for BRD4-BD1: experimental hit status flag (0/1)
T3 construct: screened the PhP library against the first bromodomain of BRD4 (BRD4-BD1); purchased GSK/GenScript
How it was run: as §1

[7] = system: T2, STAT5B-NTD; assay: Intact MS photoaffinity labeling screen, STAT5B-NTD (365 nm, UHPLC-MS); conditions: for MS labeling percentage, STAT5B: STAT5B-NTD, 365 nm 10 min, no photocatalyst; for STAT5B-NTD: experimental hit status flag (0/1);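 on MS labeling percentage, STAT5B: 0.17 µL of 100 mM DMSO fragment stock added to the protein sample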
How it was run: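 UV irradiation at 365 nm for 10 min at 4 °C. Labeling read by intact-protein UHPLC-MS, positive ion mode, m/z 100–2000.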

[8] = system: lysozyme (Lyo); assay: Intact protein MS photoaffinity labeling screen, lysozyme; conditions: intact protein MS after 10 min irradiation
How it was run: as §2

[9] = PhP library sheet "PhP", binary flag printed as 0 or 1, key not given
[10] = sheet PhP, experimental hit status flag given as 0 or 1
[11] = hit flag 1/0, sheet PhP, photoaffinity labeling screen
[12] = hit status flag, 1 = hit, 0 = no hit

SMILES | MS labeling percentage, KRas [1] [%] | MS labeling percentage, CA [2] [%] | MS labeling percentage, STAT5B+photocat [3] [%] | MS labeling percentage, Myo [4] [%] | Labeling of the other protein targets (vs. preferred target) [5] | MS labeling percentage, BRD4 [6] [%] | MS labeling percentage, STAT5B [7] [%] | MS labeling percentage, Lyo [8] [%] | further results
CC1(CCC(=O)NCc2ccc(-c3ccc(O)cc3)cc2)N=N1 [PhP088, N1=NC1(C)CCC(=O)NCc2ccc(cc2)-c3ccc(O)cc3] | 0.2 | 0 | 5.7 | 0.2 | > 1% and < 1% | 0.5 | 0 | 4.8 | KRAS-G12D (experimental hit status) [1, 9]: 0; BRD4-BD1 (experimental hit status) [6, 9]: 0; STAT5B-NTD (experimental hit status) [7, 9]: 0
Cc1c[nH]c(=O)n1-c1cccc(CNC(=O)CCC2(C)N=N2)c1 [PhP077, Cc1c[nH]c(=O)n1-c2cccc(c2)CNC(=O)CCC3(C)N=N3] | 0.7 | 0.1 | 11.5 | 0.2 | > 3% and < 3% |  | 20 | 0 | KRAS-G12D (experimental hit status) [1, 10]: 0; BRD4-BD1 (experimental hit status) [6, 10]: 0; STAT5B-NTD (experimental hit status) [7, 10]: 0
Cn1ccnc1CCNC(=O)CCC1(C)N=N1 [PhP003, Cn1ccnc1CCNC(=O)CCC2(C)N=N2] | 0.8 | 4.7 | 0.8 | 0.2 | > 1.1% and < 1.1% | 1.1 | 0 | 0 | KRAS-G12D [1]: 0; BRD4-BD1 [6]: 0; STAT5B-NTD [7]: 0
COc1ccc(NS(=O)(=O)c2cccc(NC(=O)CCC3(C)N=N3)c2)cc1 [PhP087, COc1ccc(cc1)NS(=O)(=O)c2cccc(c2)NC(=O)CCC3(C)N=N3] | 12.6 | 18.9 | 8 | 3.2 |  | 0.7 | 2.9 | 1.5 | KRAS-G12D (experimental hit status) [1, 9]: 0; Number of targets labeled in higher than 10% amount ([5]; of the six protein targets): two; BRD4-BD1 (experimental hit status) [6, 9]: 0; STAT5B-NTD (experimental hit status) [7, 9]: 0
CC(Cc1ccc(O)c(O)c1)NC(=O)CCC1(C)N=N1 (stereo not shown) [PhP001, N1=NC1(C)CCC(=O)NC(C)Cc2ccc(O)c(O)c2] | 0 | 0 | 0 | 0.2 | > 1% and < 1% | 0.6 | 0 | 19.2 | KRAS-G12D [1]: 0; BRD4-BD1 [6]: 0; STAT5B-NTD [7]: 0
COc1ccc(S(=O)(=O)N2CCC(NC(=O)CCC3(C)N=N3)CC2)cc1 [PhP018, COc1ccc(cc1)S(=O)(=O)N2CCC(CC2)NC(=O)CCC3(C)N=N3] | 42 | 17.7 | 0.7 | 19.9 |  | 65.5 | 0 | 3.7 | experimental hit status KRAS-G12D ([1]; 0/1 flag): 0; Number of proteins labeled ([5]; of the six protein targets): four; experimental hit status BRD4-BD1 ([6]; 0/1 flag): 0; experimental hit status STAT5B-NTD ([7]; 0/1 flag): 0
CCN(CCCNC(=O)CCC1(C)N=N1)c1ccccc1 [PhP048, c1ccccc1N(CC)CCCNC(=O)CCC2(C)N=N2] | 29.4 | 0 | 3.2 | 0 | > 3% and < 3% | 0.4 | 2.9 | 2.1 | KRAS-G12D (experimental hit status) [1, 11]: 0; BRD4-BD1 (experimental hit status) [6, 11]: 0; STAT5B-NTD (experimental hit status) [7, 11]: 0
CC1(CCC(=O)NCc2nc3ncccc3[nH]2)N=N1 [PhP053, N1=NC1(C)CCC(=O)NCc(n2)[nH]c(c23)cccn3] | 2 | 1.2 | 1 | 0.6 | > 2% and < 2% | 6.7 | 0 | 0 | KRAS-G12D (experimental hit status) [1, 11]: 0; BRD4-BD1 (experimental hit status) [6, 11]: 1; STAT5B-NTD (experimental hit status) [7, 11]: 0
CC1(CCC(=O)NCc2ccc(CNC(=O)OC(C)(C)C)cc2)N=N1 [PhP099, CC(C)(C)OC(=O)NCc1ccc(cc1)CNC(=O)CCC2(C)N=N2] | 7.7 | 12.8 | 19.3 | 4.3 |  | 1.1 | 2.9 | 2.2 | KRAS-G12D (experimental hit status) [1, 12]: 0; Labeling efficiency over all protein targets (mean ± spread) [5]: 5.2 ± 4%; BRD4-BD1 (experimental hit status) [6, 12]: 0; STAT5B-NTD (experimental hit status) [7, 12]: 0
COc1ccc(-c2cnc(CNC(=O)CCC3(C)N=N3)[nH]2)cc1 [PhP098, COc1ccc(cc1)-c2cnc([nH]2)CNC(=O)CCC3(C)N=N3] | 9.6 | 1.6 | 3.1 | 2.3 |  | 4.3 | 1.4 | 0.5 | KRAS-G12D (experimental hit status) [1, 12]: 0; Labeling efficiency over all protein targets (mean ± spread) [5]: 3.3 ± 3.1%; BRD4-BD1 (experimental hit status) [6, 12]: 0; STAT5B-NTD (experimental hit status) [7, 12]: 0
